Values after ≈ are worked out from the molar mass of the structure shown. Where two headings read alike, the source gives them in different places. A value given as a limit tells only on which side of the number the result lay.

The test system of test [1] is C. difficile biofilms (strains R20291, CD 630). Description: C. difficile in vitro biofilm studies (MIC, MBIC, CFU/mL, Crystal Violet biomass). Type of test: cell-based. On the procedure: A basic flow chart outlining the experimental procedure used in these studies may be seen in FIG. 14. Briefly, C. difficile laboratory strain R20291 was grown in Brain heart infusion-supplemented (BHIS) medium. […] Biofilm formation was established via anaerobic incubation of the cultures at 37° C. for 24 hrs. Early biofilm formation was established at 4 hrs, whereas late biofilm formation was established at 24 hrs, 48 hrs, and 72 hrs. Following biofilm formation, the BHIS medium was removed and replaced with fresh media comprising no antibiotic (control), ibezapolstat (IBZ), Fidaxomicin (FDX), or metronidazole (MTZ). The cultures were then anaerobically incubated for 24 hrs or subjected to time course tests. Biofilm biomass was measured using Crystal Violet staining. […] Data was measured and recorded using Cytation 3 calibrated to read at A570. Data was analyzed by comparing percent growth of antibiotic treated cultures with controls.

Test [2] relates to Blautia sp. Description: MIC determination, stool Firmicute isolates. In kind it is cell-based. Conditions: N=1. The source says:
(§1) Fecal samples homogenized in reduced PBS (0.1 g stool/ml PBS) and serially diluted and plated directly onto YCFA7 agar supplemented with 0.002 g/ml each of glucose, maltose and cellobiose in large (13.5 cm diameter) petri dishes. Isolated colonies were identified by PCR amplification of the full-length 16S rRNA gene (using 7F (5′-[…]-3′) forward primer and 1510R (5′-[…]-3′) reverse primer followed by Sanger sequencing. Full-length 16S rRNA gene sequence reads were aligned using CLC Genomics (Qiagen) using the Ribosomal Database Project (RDP) as reference to classify reads to Operational Taxonomic Units (OTUs). The full-length 16S rRNA gene sequence of each species-level OTU was compared to the Ribosomal Database Project (RDP) reference database to assign taxonomic designations to the genus level and a BLAST search performed to identify any candidate novel species.
(§2) Strains plated onto blood agar (Hardy Diagnostics) with a 24-hour incubation at 37° C. in an anaerobic environment (Coy vinyl anaerobic chamber). After incubation, 3-5 well-isolated colonies were suspended into 5 mL of BHI broth (Criterion Media). The cultures were incubated in an anaerobic chamber for 24 hours to achieve a 0.5 McFarland Standard. Brucella agar with 5% hemin (5 ug/mL) (Sigma), vitamin K (10 ug/mL), and defibrinated sheep blood (Northeast Lab Services). The supplemented brucella agar was then utilized for two-fold serial dilution to create plates with IBZ concentration of 0.5 to 16 μg/mL plates. Plates were allowed to dry in a sterile location. After drying, the plates were covered with foil to prevent any photo-damage to the hemin and placed in the anaerobic chamber for 1 hour to reduce the media. The broth culture was then spotted onto the plates and covered with foil. Plates were allowed to dry completely before inverting them for incubation for 48 hours. Plates were analyzed and MIC recorded.

Test [3] deals with Enterococcus mundtii. The test is described as follows: MIC determination, stool Firmicute isolates. In kind it is cell-based. The settings on record: N=1.
Excerpt: as §1, §2

The subject of test [4] is Enterococcus avium. Description: MIC determination, stool Firmicute isolates. Type of test: cell-based.
Excerpt: as §1, §2

Test [5] has as its system certain Firmicutes (Lachnospiraceae and Lactobacilluseae). The test is described as follows: MIC, isolated gut microbiota species: certain Firmicutes. Type of test: cell-based. The settings on record: inactive. As for the experimental part: as §2, with “Brucella agar with 5% hemin (5 ug/mL) (Sigma), vitamin K (10 ug/mL), and defibrinated sheep blood (Northeast Lab Services). The supplemented brucella agar was then utilized for two-fold serial dilution to create plates with IBZ concentration of 0.5 to 16 μg/mL plates.” left out

Test [6] concerns C. difficile CD 630 motility. Description: Phenotypic motility assay. Conditions: sub-inhibitory concentrations in semi-solid BHI agar.
Test [7] concerns Clostridioides difficile. The test is described as follows: MIC determination, C. difficile strains. Type of test: cell-based.
Excerpt: as §1, §2

Test [8] relates to C. difficile toxin A and B. The test is described as follows: Toxin production by ELISA. In kind it is cell-based. The settings on record: for reduction of toxin levels (toxin A and B), normalized to controls: sub-inhibitory concentrations, 24 h. On the procedure: Toxin production was assessed by ELISA (tgcBiomics) according to the manufacturer instructions.

For the molecule `O=c1[nH]c(NCc2ccc(Cl)c(Cl)c2)nc2ncn(CCN3CCOCC3)c12` [Ibezapolstat, 2-((3,4-dichlorobenzyl)amino)-7-(2-morpholinoethyl)-1,7-dihydro-6H-purin-6-one], in test [1] (0.4× MIC), the “C. diff growth (CFU/mL) and biomass at sub-MIC compared to control” value is reported as “reduced”. Also, the “growth in early biofilms at supra-MIC” value in test [1] (40× MIC, after 48 hours of treatment) is listed as “eradicated growth”. For the same molecule, the MBIC in test [1] (C. diff. strain R20291, Minimum Biofilm Inhibitory Concentration) is 4 µg/mL. Also, the MIC in test [1] (Clostridioides difficile, C. diff. strain R20291, read-out: MIC) was 4 µg/mL (≈ 9.45 µM); in test [4] (N=2, read-out: MIC Max) it was 12.5 µg/mL (≈ 29.5 µM); in test [4] (N=2, read-out: MIC Min), 12.5 µg/mL (≈ 29.5 µM); in test [5] it was above 64 µg/mL; in test [7] (Clostridioides difficile, N=6, read-out: MIC Max), 1 µg/mL (≈ 2.36 µM); in test [7] (Clostridioides difficile, N=6, read-out: MIC Min), 0.25 µg/mL (≈ 0.591 µM). Further, the MIC in test [7] (Clostridioides difficile, strains of C. difficile, highly active) is at most 2 µg/mL; in test [7] (strains of C. difficile, highly active) it was below 2 µg/mL. Further, the MIC50 is 12.5 µg/mL (≈ 29.5 µM) in test [2]; 12.5 µg/mL (≈ 29.5 µM) in test [3]; 12.5 µg/mL (≈ 29.5 µM) in test [4] (N=2); 0.5 µg/mL (≈ 1.18 µM) in test [7] (Clostridioides difficile, N=6). The “motility of CD 630” value in test [6] is on record as “attenuated motility”; in test [6] (listed as IBZ) it was “less motile”. Moreover, the “total toxin A and B production” value in test [8] (strain CD 630, 24 hours of treatment) is “decreases total toxin A and B production in strain CD 630 in a dose-dependent manner”. The “reduction of toxin levels (toxin A and B), normalized to controls” value in test [8] (strain CD 630) amounted to 55%; in test [8] (strain R20291), 60%.

The values above are taken from patent US20260144796A1, “Compounds and Methods for Improving Health” (Acurx Pharmaceuticals, Inc., priority 2022, published 2026).
